From PubChem BioAssay (NCI)
Several values for one entry are separate records, joined by “and”; a condition that tells them apart may be missing. Equal entries are not always repeated.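 Compound exposure: 48 hours, 5 concentrations, 96-well plates. The concentration for 50% growth inhibition is given as GI50. The concentration for full growth arrest is given as TGI.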

What was measured:
Assay in all cases: DTP human tumour cell line panel, 48 h
OVCAR-8 ovarian = tested on: OVCAR-8 ovarian
A549 NSCLC = tested on: A549 NSCLC
BT-549 breast = tested on: BT-549 breast
HS 578T breast = tested on: HS 578T breast
RPMI-8226 leukemia = tested on: RPMI-8226 leukemia
ACHN renal = tested on: ACHN renal
NCI-H522 lung = tested on: NCI-H522 lung
SK-MEL-2 melanoma = tested on: SK-MEL-2 melanoma
MDA-MB-435 = tested on: MDA-MB-435
PC-3 prostate = tested on: PC-3 prostate

SMILES | GI50 (OVCAR-8 ovarian) [µM] | TGI (OVCAR-8 ovarian) [µM] | GI50 (A549 NSCLC) [µM] | TGI (A549 NSCLC) [µM] | GI50 (BT-549 breast) [µM] | TGI (BT-549 breast) [µM] | GI50 (HS 578T breast) [µM] | TGI (HS 578T breast) [µM] | GI50 (RPMI-8226 leukemia) [µM] | TGI (RPMI-8226 leukemia) [µM] | GI50 (ACHN renal) [µM] | TGI (ACHN renal) [µM] | GI50 (NCI-H522 lung) [µM] | TGI (NCI-H522 lung) | GI50 (SK-MEL-2 melanoma) [µM] | TGI (SK-MEL-2 melanoma) [µM] | GI50 (MDA-MB-435) [µM] | TGI (MDA-MB-435) [µM] | GI50 (PC-3 prostate) [µM] | TGI (PC-3 prostate) [µM]
CCN1CCN(CC(=O)Nc2nc3ccc(NCc4ccc(Cl)cc4)cc3s2)CC1 | 4.59 | > 100 | 2.76 | 8.01 | 10.6 | 25 | 2.59 | 9.09 | 1.6 | 4.04 | 2.22 | 5.02 | 2.2 | 5.19 µM | 2.02 | 3.98 | 1.9 | 3.81 | – | –
C/C([O-])=C1\Cc2ccccc2C1=O.C/C([O-])=C1\Cc2ccccc2C1=O.CC[O-].CC[O-].[Ti+4] | 12.9 | 50.4 | 28.5 | > 100 | – | – | 11.7 | 47.2 | 14.8 | 68.8 | 19.1 | > 92.2 | 14.2 | 47.6 µM | 13.5 | 33.6 | 17.6 | 43 | 22 | 71.7
Cc1ccc(S(=O)(=O)NNC(=O)c2sc(-c3nc(C)c(C(=O)NNS(=O)(=O)c4ccc(C)cc4)s3)nc2C)cc1 | – | > 100 | – | > 100 | – | – | – | – | – | > 100 | – | > 100 | – | – | – | > 100 | – | – | – | –
CC1CC2C(=O)N(c3ccccc3)C(=O)C2c2c1c1ccccc1n2Cc1ccccc1 (stereo not given) | – | > 100 | – | > 100 | – | – | – | – | – | > 100 | – | > 100 | – | 92.3 µM | – | > 100 | – | – | – | –
CC(CN1CCN(C)CC1)CN1c2ccccc2Sc2ccc(C(F)(F)F)cc21 (stereo not given) | 1.76 | 3.34 | 1.85 | 3.49 | – | – | 1.88 | 5.8 | 2.43 | 5.49 | 1.67 | 3.27 | 1.79 | 3.37 µM | 2.09 | 3.74 | 1.8 | 3.6 | 2.09 | 5.21
C[C@H]1[C@H](C)CC[C@]2(C(=O)N3CCN(C)CC3)CC[C@]3(C)C(=CC[C@@H]4[C@@]5(C)C/C(=C/c6cccnc6)C(=O)C(C)(C)[C@@H]5CC[C@]43C)[C@H]12 | – | – | 1.06 | 2.32 | – | – | 1.43 | 5.4 | 1.49 | 4.15 | 1.23 | 2.49 | 0.328 | 1.3 µM | 1.53 | 3.08 | 1.13 | 2.49 | 0.541 | 1.85
N#C/C(=C1\NN=C(N)C(c2ccc(Cl)cc2)=C1O)c1ccc(Cl)cc1 | – | > 100 | – | > 100 | – | – | – | – | – | > 100 | – | > 100 | – | > 100 µM | – | – | – | – | – | –
O=C(O)CCSCCCN1C(=O)c2ccccc2C1=O | – | > 100 | – | > 100 | – | – | – | – | – | > 100 | – | > 100 | – | – | – | > 100 | – | – | – | –
NC(=NC1CCCCCCC1)c1ccc(N2CCN(c3ccc(C(N)=NC4CCCCCCC4)cc3)CC2)cc1 | 4.9 | 30 | 4.25 | > 100 | – | – | – | – | 25.8 | > 100 | 22.7 | > 100 | 12.8 | 52.2 µM | 12 | > 100 | 5.25 | 17.9 | 22.6 | 46.8
O=C1OC(CC(=O)c2ccc(Cl)cc2Cl)C(Cl)=C1Cl (stereo not given) | – | > 60.2 | – | > 100 | – | – | – | – | – | > 73 | – | > 56.9 | – | 34.7 µM | – | 41.7 | – | – | – | –
Cc1ccc(NC(=O)c2cc3ccccc3c(N=Nc3ccccc3O)c2O)c(C)c1 | – | 3.7 | – | 12.7 | – | – | – | 8.29 | – | 11.1 | – | 16.4 | – | 2.61 µM | – | 14.9 | – | – | – | 10
Cc1cccc(NC(=O)c2cc3cc(N=Nc4ccccc4Cl)ccc3oc2=O)c1 | – | > 100 | – | > 100 | – | – | – | – | – | > 100 | – | > 100 | – | 56.8 µM | – | – | – | – | – | –
C/C(=C\c1ccn(-c2ccc(N)c(F)c2)n1)[C@@H]1C[C@@H]2O[C@]2(C)CCC[C@H](C)[C@H](O)[C@@H](C)C(=O)C(C)(C)[C@@H](O)CC(=O)O1 | 0.0239 | > 50 | 0.0118 | > 50 | 0.041 | 25.4 | 0.0108 | – | 0.00955 | > 25.4 | 0.234 | > 50 | 0.00973 | 0.0321 µM | 0.0321 | > 50 | – | – | 0.0139 | > 50
O=C(/C=C/c1ccc(Cl)c(Cl)c1)c1ccc(F)cc1 | – | 30.8 | – | > 100 | – | – | – | – | – | 12.6 | – | 31.6 | – | 18.5 µM | – | – | – | – | – | –
O=C1CC(c2ccc3c(c2)OCO3)Nc2cc3c(cc21)OCO3 (stereo not given) | 0.84 | > 100 | 0.6 | > 100 | 3.24 | > 100 | 0.512 | 93.6 | – | – | 2.05 | > 100 | 0.551 | 16.8 µM | 0.747 | > 100 | – | – | 0.464 | > 100
Cc1cc(C)c2c(c1)Nc1ccccc1P2c1ccccc1 (stereo not given) | – | > 100 | – | > 100 | – | – | – | – | – | 26.7 | – | – | – | – | – | – | – | – | – | –
Nc1c(Br)c(=O)[nH]c(=O)n1COCCO | – | > 100 | – | > 100 | – | – | – | – | – | – | – | > 100 | – | > 100 µM | – | – | – | – | – | –
Cc1nn(-c2ccccc2)c2c1CC(=O)Nc1ccccc1-2 | – | – | 0.764 | > 100 | – | – | – | – | 0.0826 | 0.456 | 0.84 | > 100 | 0.17 | 3.75 µM and 0.593 µM | 0.387 | > 100 | – | 0.602 | 0.279 | –
O=c1c2cc(Br)ccc2nc(-c2ccccc2Cl)n1NCC1(O)OCC(O)C(O)C1O (stereo not given) | – | > 100 | – | > 100 | – | – | – | – | – | > 100 | – | > 100 | – | > 100 µM | – | > 100 | – | – | – | –
Nc1ccn(CCO)c(=O)n1 | – | > 100 | – | > 100 | – | – | – | – | – | > 100 | – | > 100 | – | > 100 µM | – | > 100 | – | – | – | –
